Active and inactive are the calls of the source. The rule behind the calls is not given here.
Tests used:
[1] = test system: C3H 10T1/2; assay: Induction of osteogenesis in mouse C3H10T1/2 cells assessed as increase in alkaline phosphatase activity after 72 hrs by ALP assay; assay type: functional, cell-based
[2] = test system: C3H 10T1/2; assay: Induction of osteogenesis in mouse C3H10T1/2 cells assessed as increase in alkaline phosphatase activity at 2 uM after 72 hrs by ALP assay; assay type: functional
[3] = Cytotoxicity against mouse 3T3L1 cells at 0.1 to 25 uM after 24 hrs by WST-1 assay; assay type: cell-based; settings: 3t3-l1, 24 h
[4] = test system: C3H 10T1/2; assay: Induction of osteogenesis in mouse C3H10T1/2 cells assessed as calcium deposition at 4 uM by Alizarin Red S staining-based assay; assay type: functional, cell-based
[5] = test system: C2C12; assay: Cytotoxicity against mouse C2C12 cells at 0.1 to 25 uM after 24 hrs by WST-1 assay; assay type: cell-based; settings: c2c12, 24 h
[6] = test system: PC-3; assay: Cytotoxicity against human PC3 cells at 0.1 to 25 uM after 24 hrs by WST-1 assay; assay type: cell-based; settings: pc-3, 24 h
[7] = test system: Mus musculus; assay: Induction of osteogenesis in ovariectomized C57BL/6 mouse model assessed as increase in bone volume at 10 mg/kg/day, po administered 5 days per week for 4 weeks by micro-CT analysis relative to vehicle-treated control; assay type: functional, organism-based
[8] = test system: L6; assay: Cytotoxicity against rat L6 cells at 0.1 to 25 uM after 24 hrs by WST-1 assay; assay type: cell-based; settings: l6, 24 h
[9] = test system: Mus musculus; assay: Induction of osteogenesis in ovariectomized C57BL/6 mouse model assessed as reduction in trabecular space at 10 mg/kg/day, po administered 5 days per week for 4 weeks by micro-CT analysis relative to vehicle-treated control; assay type: functional, organism-based; settings: Trabecula
[10] = test system: C3H 10T1/2; assay: Induction of osteogenesis in mouse C3H10T1/2 cells using BCIP as substrate assessed as increase in alkaline phosphatase activity at 0.25 to 4 uM after 72 hrs by nitroblue tetrazolium chloride staining-based assay; assay type: functional, cell-based
[11] = test system: HeLa; assay: Cytotoxicity against human HeLa cells at 0.1 to 25 uM after 24 hrs by WST-1 assay; assay type: cell-based
[12] = test system: Mus musculus; assay: Induction of osteogenesis in ovariectomized C57BL/6 mouse model assessed as increase in […] at 5 to 10 mg/kg/day, po administered 5 days per week for 4 weeks by dual-energy X-ray absorptiometry relative to vehicle-treated control; assay type: functional
[13] = test system: HepG2; assay: Cytotoxicity against human HepG2 cells at 0.1 to 25 uM after 24 hrs by WST-1 assay; assay type: cell-based; settings: hepg2, 24 h
[14] = test system: C3H 10T1/2; assay: Activation of proto-oncogene protein Wnt/beta-catenin signaling (unknown origin) transfected in mouse C3H10T1/2 cells assessed as increase in transcriptional activity at 2 uM after 48 hrs by TOPflash luciferase reporter gene assay; assay type: cell-based; settings: Homo sapiens
[15] = Cytotoxicity against human CaSki cells at 0.1 to 25 uM after 24 hrs by WST-1 assay; assay type: cell-based; settings: ca-ski
[16] = test system: Mus musculus; assay: Induction of osteogenesis in ovariectomized C57BL/6 mouse model assessed as increase in trabecular number at 10 mg/kg/day, po administered 5 days per week for 4 weeks by micro-CT analysis relative to vehicle-treated control; assay type: functional, organism-based; settings: Trabecula
[17] = test system: DU-145; assay: Cytotoxicity against human DU145 cells at 0.1 to 25 uM after 24 hrs by WST-1 assay; assay type: cell-based; settings: du-145, 24 h

Structure (SMILES)	Activity [1]	fold change (FC) [2]	other results
CC1(C)CC(c2cccnc2)c2ccc(O)cc2O1 (stereo unspecified)	inactive		
CC1(C)CC(c2ccoc2)c2ccc(O)cc2O1 (stereo unspecified)	inactive		
CC1(C)C=C(c2ccc(N)cc2)c2ccc(O)cc2O1		3.9	
CC1(C)C=C(c2ccccc2[N+](=O)[O-])c2ccc(O)cc2O1		1.2	
CN(C)c1ccc(C2=CC(C)(C)Oc3cc(O)ccc32)cc1		0.7	
CC1(C)CC(c2ccccc2)c2ccc(O)cc2O1 (stereo unspecified)	inactive		
CN(C)c1cccc(C2=CC(C)(C)Oc3cc(O)ccc32)c1		1.6	
CC1(C)C=C(c2cc(Cl)cc(Cl)c2)c2ccc(O)cc2O1		1.5	
Cc1n[nH]c(C)c1C1CC(C)(C)Oc2cc(O)ccc21 (stereo unspecified)	inactive		
O=[N+]([O-])c1cccc(C2=CC3(CCCC3)Oc3cc(O)ccc32)c1		0.6	
CC1(C)CC(c2ccc([N+](=O)[O-])cc2)c2cc(-c3cccc(O)c3)ccc2O1 (stereo unspecified)	inactive		
CC1(C)C=C(c2ccc([N+](=O)[O-])cc2)c2ccc(O)cc2O1		3.1	
CCOC(=O)CCC1(C)C=C(c2cccc([N+](=O)[O-])c2)c2ccc(O)cc2O1 (stereo unspecified)		1.4	
CC1(C)C=C(c2cccc(O)c2)c2ccc(O)cc2O1		1.4	
CC1(C)C=C(c2cccc([N+](=O)[O-])c2)c2ccc(O)cc2O1	Dose-dependent effect	6.8	Activity [3]: Non-toxic; Activity [4]: Active; Activity [5]: Non-toxic; Activity [6]: Non-toxic; Activity [7]: Active; Activity [8]: Non-toxic; Activity [9]: Active; Activity [10]: Dose-dependent effect; Activity [11]: Non-toxic; Activity [12]: 37%; Activity [13]: Non-toxic; Activity [14]: Active; Activity [15]: Non-toxic; Activity [16]: Active; Activity [17]: Non-toxic
CC(=O)c1cccc(C2=CC(C)(C)Oc3cc(O)ccc32)c1		1.9	
CC1(C)CC(c2ccc([N+](=O)[O-])cc2)c2cc(Cl)cc(-c3cccc(O)c3)c2O1 (stereo unspecified)	inactive		
COc1ccc2c(c1O)OC(C)(C)C=C2c1cccc([N+](=O)[O-])c1		1.5	
CC1(C)CC(c2cccs2)c2ccc(O)cc2O1 (stereo unspecified)	inactive		
CC1(C)C=C(c2cccc(N)c2)c2ccc(O)cc2O1		2.5	

From ChEMBL document CHEMBL3217458, “Discovery of a novel benzopyranyl compound as a potent in vitro and in vivo osteogenic agent” (Medchemcomm, 2011)
